Consider twelve molecules from US10071951B2, “Liquid cation exchanger” (Evonik Degussa GmbH, priority 2011, dated 2018).

Series [1] deals with E. coli strain BL21 (DE3) Tlr pBT10 pACYC:Duet[TAcv]. The series can be described thus: Toxicity of liquid cation exchangers in fermentation, oxygen transfer rate (OTR) (Example 5). The class given is cell-based. As to conditions: ion exchanger 10% w/w in methyl laurate; for toxic effect on cells judged from the OTR curve: 150 mL added to fermentation broth, 22 h. As to the method: The biotransformation of methyl laurate to methyl aminolaurate was tested in an 8-fold parallel fermentation system from DasGip with different ion exchangers.
1 L reactors were used for the fermentation. The pH probes were calibrated using a two-point calibration with measurement solutions of pH 4.0 and pH 7.0. The reactors were filled with 300 mL of water and autoclaved for 20 min at 121° C. in order to ensure sterility. The pO2 probes were then polarized overnight (at least 6 h). On the next morning, the water was removed under the clean bench and replaced by high cell density medium with 50 mg/L kanamycin and 34 mg/L chloramphenicol. Subsequently, the pO2 probes were calibrated with a one-point calibration (stirrer: 600 rpm/gassing: 10 sL/h air) and the feed, correctant and induction means stretches were cleaned by means of clean-in-place. For this, the tubes were flushed with 70% ethanol, then with 1 M NaOH, then with sterile demineralised water, and finally filled with the respective media.
The ALS and ALSME producing E. coli strain BL21 (DE3) Tlr pBT10 pACYC:Duet[TAcv] was firstly grown from cryoculture in LB medium (25 mL in a 100 mL baffled flask) with 50 mg/L kanamycin and 34 mg/L chloramphenicol overnight at 37° C. and 200 rpm for ca. 18 h.
The 3 cultures were combined in a shake flask and the optical density was determined at 7.2. In order to inoculate the reactors with an optical density of 0.1, in each case 4.2 mL were drawn up in a 5 mL syringe and the reactors were inoculated by means of canulae via a septum.
The experiment carried out can be divided into two phases, the cultivation during which the cells should reach a certain optical density, and the subsequent biotransformation during which the expression of the genes required for the biotechnological process for producing ALSME was induced. The pH values were regulated to pH 6.8 on the one hand with ammonia (12.5%). During cultivation and biotransformation, the dissolved oxygen (DO) in the culture was regulated at 30% via stirrer speed and gassing rate. The fermentation was carried out as a feed batch, where the feed start, 5 g/Lh glucose feed (500 g/L glucose with 1% MgSO4*7H2O and 2.2% NH4Cl), was triggered via a DO peak. […] The expression of the transaminase was induced 2 h after feed start via the automatic addition of IPTG (1 mM). The induction of the alk-genes was carried out by the manual addition of DCPK (0.025% v/v) 10 h after feed start. Before the start of the biotransformation, the optical density of the culture broths was determined.
The start of the biotransformation phase was carried out 14 h after feed start. For this, 150 mL of a mixture of methyl laurate and the respective ion exchanger (10% w/w) were added as a batch to the fermentation broth. The ion exchangers used were di(2-ethylhexyl)phosphoric acid (DEHPA), lauric acid, oleic acid, palmitic acid, palmitoleic acid, stearic acid and a mixture of free fatty acids from the saponification of globe thistle oil. In order to provide an amino group donor for the transaminase, at the same time as the addition of the organic phase, 10.7 mL of an alanine solution (125 g/L) were added to the fermentation broth. For the sampling, 2 mL of fermentation broth were removed from the reactor and part of it was diluted 1/20 in an acetone/HCl mixture (c(HCl)=0.1 mol/L) and extracted. Samples were taken from all 8 reactors at 1.25 h, 3 h, 5 h, 20 h, 22 h […] after the start of the biotransformation. The transfer rates for oxygen (OTR=oxygen transfer rate) and carbon (CTR=carbon transfer rate) were determined during the fermentation via offgas analysis on the DasGip systems. The fermentation was ended 22 h after the start of the biotransformation.

For the next series, the system named is E. coli BL21(DE3). As to the kind of experiment: Toxicity of liquid cation exchangers, CFU determination (Example 2). The text has this:
50% DEHPA and lauric acid (15%), each dissolved in LSME and laden equimolar or 25 mol % with ALSME, were contacted as liquid cation exchanger with a E. coli BL21 (DE3) strain, and the influence of these two compounds on the ability of the strain to form colonies, expressed in CFUs, was investigated.

Series [2] concerns E. coli W3110. The series can be described thus: Reduction in the toxicity of ALSME by contacting with a liquid cation exchanger, CFU determination (Example 4). The settings on record: ALSME 0.2% (w/v) dissolved in aqueous systems, no organic phase.
Protocol: Before the determination of the CFU was able to be carried out, a plate LB (10 g/L peptone from casein, 5 g/L yeast extract, 10 g/L NaCl) was streaked with E. coli BW3110 and incubated for 24 h. On the evening of the following day, a preculture was inoculated from this previously streaked plate. […] After the incubation of the main culture, the cells were harvested, centrifuged at 5258 g and 4° C. for 10 min and resuspended with an OD600 of 30 in 10 mL 50 mM Kp, buffer at pH 7.4 (or 25 mM HEPES buffer pH 7.4 if CFU determinations were carried out with ALSME). Both buffer solutions used contained 5% glucose (w/v). The bacteria suspension was then transferred to the shake flasks and treated with the respective substance solutions. After thorough mixing has taken place by swirling the flask, 100 μL of the suspension was pipetted out and placed into 900 μL, of previously charged sterile saline. This corresponded to sampling at time point t0. Then followed incubation of the preparations at 250 rpm and 30° C. The CFUs were determined over a period of 22 h. The samples were taken firstly at time points t0, t3, t6 and t22. For some preparations, a further sampling time point t15 was added and, in addition to this, a further additional dilution series was plated out in order to minimize deviations.
The bacteria were firstly resuspended in 5 mL (corresponds to half of the buffer volume). […]
The nature of series [3]: Removal (reactive extraction) of DAI and DAS from an aqueous phase into a hydrophobic organic phase (Example 3). The class given is physicochemical. The source says: The organic solvents used here are kerosene (K), benzyl benzoate (B), methyl laurate (ML), cis-9-ocitadecen-1-ol (OD). As liquid cation exchangers, oleic acid and D2EHPA were compared in terms of their effect with the respective pure solvent.
The experimental procedure proceeded identically in all cases: the aqueous phase comprised 2% by weight of diamine and the organic phase consisted of the corresponding solvent and 20% by weight of the respective liquid cation exchanger. The volume ratio of the two phases was 1:1 (in each case 4.5 ml). At a constant temperature of T=30° C., the samples were shaken for 2 hours in a water bath. Then, after centrifugation and phase separation, the phases were analyzed. The pH was adjusted in all cases with aqueous ammonia or sulphuric acid.

Series [4] concerns E. coli W3110. The settings on record: culture covered with identical volume of solvent, oleic acid volume adapted with LSME.
Protocol: Firstly, a preculture comprising 20 ml LB medium was inoculated in a 100 ml baffled flask with a cryoculture of the corresponding strain. The culture was cultured overnight at 37° C. and with shaking at 200 rpm used on the next day in order to inoculate an identical main culture to an OD of 0.2. The main cultures (each 30 mL of LB medium) were then further incubated under identical conditions. At an OD of 0.4 to 0.5, the main culture was covered with in each case identical volumes (30 ml) of solvent and then further incubated.
To determine the number of CFU (colony-forming units) 0.1 ml samples were taken in the following experiments and diluted in sterile 0.9% NaCl solution. Suitable dilution stages were plated out on LB agar plates. After incubation at 34° C. overnight, the colonies formed were counted and the CFUs determined.
For this, two different concentrations of oleic acid were used and the volume was adapted by adding the corresponding amount of LSME (methyl laurate).
On account of the lower solubility of the unsaturated fatty acid lauric acid, this was used in a smaller amount. The volumes of the different cation exchangers were made the same with the LSME. The number of CFUs was determined at the start, after 4.5 h and after 24 h.
For a further series, the system named is E. coli BW3110. As to the kind of experiment: Toxicity of the solvent LSME, CFU determination (Example 1). The series is classed as cell-based. The settings on record: cells OD600 60 in 10 mL Kp buffer mixed with 5 mL LSME 98% (w/w), 30° C. The protocol:
The OD600 was 60. […] One dilution stage per preparation was plated out.

The mark [5] stands for this setting: oleic acid 20% by weight, solvent methyl laurate, pH lowered with sulphuric acid.
Where [6] appears, read: E. coli BL21(DE3), culture covered with identical volume of solvent, oleic acid volume adapted with LSME.

On to `CCCCCC/C=C\CCCCCCCC(=O)O` [palmitoleic acid], for which, in series [1], the “toxic effect on cells judged from the OTR curve” value (“toxic effect on cells judged” for short) was “even lower toxicity than the saturated fatty acids”.
The same measure, in the same setting: then `CCCCCCCCCCCCCCCCCC(=O)O` [stearic acid], with “considerably lower toxic effect”.
Consider `CCCCC(CC)COP(=O)(O)OCC(CC)CCCC` (centres unmarked) [DEHPA, di(2-ethylhexyl)phosphoric acid, reference compound], for which, in the series with E. coli BL21(DE3) (E. coli), the “Number of CFUs after 22 or 24 h relative to t = 0 h” value came out at 0%. Also, the “toxic effect on cells judged” value in series [1] is reported as “high grade toxic effect”. Further, the “OTR after adding the compound to the culture” value in series [1] (150 mL, within a short time) stood at 0.
For the molecule `COC(=O)CCCCCCCCCCCN` [ALSME, methyl 12-aminolaurate], the “effect on the bacteria” value in the series on E. coli W3110 [2] is recorded as “bactericidal effect”.
Take `NC1COC2C(N)COC12` (centres unmarked) [DAS, diaminoisosorbitol]: the “maximum degree of extraction” value in series [3] (setting [5]) is 4%; in series [3] (oleic acid, solvent benzyl benzoate, pH 7.3), 61.5%; in series [3] (oleic acid, solvent cis-9-octadecen-1-ol, pH 6 (starting pH reduced with H2SO4)), 5.5%; in series [3] (oleic acid, solvent kerosene, pH 8.5), 85%.
For `CCCCCCCCCCCC(=O)O` [Lauric acid], the “Number of CFUs after 22 or 24 h relative to t = 0 h” value in the series with E. coli BL21(DE3) (E. coli) turned out to be 1.2%. Also, the “toxic effect on cells judged” value in series [1] was “notably less toxic than DEHPA”.
`CCCCCCCCCCCCCCCC(=O)O` [palmitic acid]: in series [1], the “toxic effect on cells judged” value was “considerably lower toxic effect”.
The same measure, in the same setting: then `CCCCCCCC/C=C\CCCCCCCC(=O)O` [oleic acid], with “even lower toxicity than the saturated fatty acids”.
`NC1COC2C(N)COC12` (centres unmarked) [DAI, diaminoisoiditol]: the degree of extraction result in series [3] (D2EHPA 20% by weight as liquid cation exchanger, without addition of acid or alkali, pH range 5.4 to 6.2, 30° C., 2 h, phases 1:1) is listed as “ca. 100%”. The “maximum degree of extraction” value in series [3] (setting [5]) was determined as 48%; in series [3] (oleic acid, solvent benzyl benzoate, pH 1.1), 15.3; in series [3] (oleic acid, solvent cis-9-octadecen-1-ol, pH 7.9, neither alkali nor acid added) it was 85%; in series [3] (oleic acid, solvent kerosene, pH 8.4) it was 77.5%.
Consider `CCCCC(CC)C(=O)O` (centres unmarked) [2-Ethylhexanoic acid], for which the “Number of CFUs after 22 or 24 h relative to t = 0 h” value with E. coli BL21(DE3) (setting [6]) and in the series with E. coli W3110 [4] was 0% throughout.
On to `CC(C)CCCCCC(=O)O` [Isononanoic acid], for which the “Number of CFUs after 22 or 24 h relative to t = 0 h” value with E. coli BL21(DE3) (setting [6]) and with E. coli W3110 [4] was 0% in each case.
As for `CCCCCCCCCCCC(=O)OC` [LSME, methyl laurate], in the series on E. coli BW3110 (after 22 h), the “percentage decrease in living cell count” value was determined as 30.3%. The “number of CFU/mL” value in the series with E. coli BW3110 (over a period of 6 h) is “remained constant”. In addition, the “tolerance by the strains used” value in the series on E. coli BL21(DE3) (preliminary experiments) is on record as “well tolerated”.
